Counter-ions that a name gives are not always drawn.
These compounds were tested against SHP2 (Homo sapiens (Human), UniProt Q06124) (assay: SHP2 Allosteric Inhibition Assay (DiFMUP prompt fluorescence)). Settings: 0.25 nM SHP2 activated with 0.5 μM peptide IRS1_pY1172(dPEG8)pY1222; substrate DiFMUP 100 μM; 25° C.
Assay type: biochemical

SHP2, sequence (Q06124 whole entry): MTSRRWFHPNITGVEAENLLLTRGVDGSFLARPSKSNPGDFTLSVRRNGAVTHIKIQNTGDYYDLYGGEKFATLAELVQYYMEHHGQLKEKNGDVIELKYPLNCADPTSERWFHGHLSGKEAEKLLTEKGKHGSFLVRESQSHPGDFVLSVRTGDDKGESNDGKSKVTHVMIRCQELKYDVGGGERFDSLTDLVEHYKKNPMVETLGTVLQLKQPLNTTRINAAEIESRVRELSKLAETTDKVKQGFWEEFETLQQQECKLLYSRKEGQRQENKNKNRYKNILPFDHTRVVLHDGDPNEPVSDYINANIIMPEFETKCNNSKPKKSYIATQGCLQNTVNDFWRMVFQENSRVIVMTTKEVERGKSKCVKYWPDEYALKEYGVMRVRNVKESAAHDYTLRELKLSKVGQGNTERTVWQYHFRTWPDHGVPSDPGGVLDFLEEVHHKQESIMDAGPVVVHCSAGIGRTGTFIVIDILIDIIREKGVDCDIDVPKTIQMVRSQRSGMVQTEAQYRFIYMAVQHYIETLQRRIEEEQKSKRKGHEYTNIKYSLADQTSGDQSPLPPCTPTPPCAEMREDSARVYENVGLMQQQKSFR

Row | SMILES | IC50 [µM]
1 | CNCCN(C)c1n[nH]c2nc(N3CCC(C)(CN)CC3)cnc12 [Compound 474] | ≥ 10
2 | CC1(N)CCN(c2cnc3c(Sc4ccc[nH]c4=O)n[nH]c3n2)CC1 [Compound 475, 3-((6-(4-amino-4-methylpiperidin-1-yl)-1H-pyrazolo[3,4-b]pyrazin-3-yl)thio)pyridin-2(1H)-one] | 1 to 10
3 | CC1(N)CCN(c2cnc3c(Sc4cc[nH]c(=O)c4Cl)n[nH]c3n2)CC1 [Compound 477, 4-((6-(4-amino-4-methylpiperidin-1-yl)-1H-pyrazolo[3,4-b]pyrazin-3-yl)thio)-3-chloropyridin-2(1H)-one] | < 1
4 | COc1nccc(Sc2n[nH]c3nc(N4CCC(C)(N)CC4)cnc23)c1Cl [Compound 479, 1-(3-((3-chloro-2-methoxypyridin-4-yl)thio)-1H-pyrazolo[3,4-b]pyrazin-6-yl)-4-methylpiperidin-4-amine] | < 1
5 | CC1(N)CCN(c2cnc3c(Sc4cccnc4C(=O)O)n[nH]c3n2)CC1 [Compound 482] | < 1
6 | N[C@@H]1COCC12CCN(c1cnc3c(Sc4cccnc4C(F)(F)F)n[nH]c3n1)CC2 [Compound 483, (S)-8-(3-((2-(trifluoromethyl)pyridin-3-yl)thio)-1H-pyrazolo[3,4-b]pyrazin-6-yl)-2-oxa-8-azaspiro[4.5]decan-4-amine] | < 1
7 | Cn1ccc(Sc2n[nH]c3nc(N4CCC(C)(N)CC4)cnc23)c(Cl)c1=O [Compound 484, 4-((6-(4-amino-4-methylpiperidin-1-yl)-1H-pyrazolo[3,4-b]pyrazin-3-yl)thio)-3-chloro-1-methylpyridin-2(1H)-one] | < 1
8 | NCC1(F)CCN(c2cnc3c(Sc4ccccc4Cl)n[nH]c3n2)CC1 [Compound 485, (1-(3-((2-chlorophenyl)thio)-1H-pyrazolo[3,4-b]pyrazin-6-yl)-4-fluoropiperidin-4-yl)methanamine] | < 1
9 | CC1(N)CCN(c2cnc3c(Sc4ccncc4)n[nH]c3n2)CC1 [Compound 486, 4-methyl-1-(3-(pyridin-4-ylthio)-1H-pyrazolo[3,4-b]pyrazin-6-yl)piperidin-4-amine] | < 1
10 | CC(=O)N1CCCC(Sc2n[nH]c3nc(N4CCC(C)(N)CC4)cnc23)C1 (centres unmarked) [Compound 488, 1-(3-((6-(4-amino-4-methylpiperidin-1-yl)-1H-pyrazolo[3,4-b]pyrazin-3-yl)thio)piperidin-1-yl)ethan-1-one] | ≥ 10
11 | CC1(N)CCN(c2cnc3c(Sc4ccnc(N)c4F)n[nH]c3n2)CC1 [Compound 489, 4-((6-(4-amino-4-methylpiperidin-1-yl)-1H-pyrazolo[3,4-b]pyrazin-3-yl)thio)-3-fluoropyridin-2-amine] | < 1
12 | CN(c1ccnc(N)c1)c1n[nH]c2nc(N3CCC(C)(N)CC3)cnc12 [Compound 491, N4-[6-(4-amino-4-methyl-1-piperidyl)-1H-pyrazolo[3,4-b]pyrazin-3-yl]-N4-methyl-pyridine-2,4-diamine] | 1 to 10
13 | CC1(N)CCN(c2cnc3c(SC4CCCNC4)n[nH]c3n2)CC1 (centres unmarked) [Compound 492, 4-methyl-1-(3-(piperidin-3-ylthio)-1H-pyrazolo[3,4-b]pyrazin-6-yl)piperidin-4-amine] | ≥ 10
14 | CC1(N)CCN(c2cnc3c(Sc4ncnc5ccccc45)n[nH]c3n2)CC1 [Compound 493, 4-methyl-1-(3-(quinazolin-4-ylthio)-1H-pyrazolo[3,4-b]pyrazin-6-yl)piperidin-4-amine] | < 1
15 | COC(=O)CCc1ncccc1Nc1n[nH]c2nc(N3CCC(C)(N)CC3)cnc12 [Compound 495, methyl 3-[3-[[6-(4-amino-4-methyl-1-piperidyl)-1H-pyrazolo[3,4-b]pyrazin-3-yl]amino]-2-pyridyl]propanoate] | 1 to 10
16 | CC1(N)CCN(c2cnc3c(Sc4cccn5ccnc45)n[nH]c3n2)CC1 [Compound 496, 1-(3-(imidazo[1,2-a]pyridin-8-ylthio)-1H-pyrazolo[3,4-b]pyrazin-6-yl)-4-methylpiperidin-4-amine hydrochloride] | < 1
17 | CNc1nccc(Sc2n[nH]c3nc(N4CCC(C)(N)CC4)cnc23)c1Cl [Compound 497, 4-((6-(4-amino-4-methylpiperidin-1-yl)-1H-pyrazolo[3,4-b]pyrazin-3-yl)thio)-3-chloro-N-methylpyridin-2-amine hydrochloride] | < 1
18 | CC1(CN)CCN(c2cnc3c(Nc4ccnc(N)c4Cl)n[nH]c3n2)CC1 [Compound 498, N^4-(6-(4-(aminomethyl)-4-methylpiperidin-1-yl)-1H-pyrazolo[3,4-b]pyrazin-3-yl)-3-chloropyridine-2,4-diamine] | < 1
19 | CC1(CN)CCN(c2cnc3c(Nc4ccnc(Cl)c4Cl)n[nH]c3n2)C1 (centres unmarked) [Compound 499, 6-(3-(Aminomethyl)-3-methylpyrrolidin-1-yl)-N-(2,3-dichloropyridin-4-yl)-1H-pyrazolo[3,4-b]pyrazin-3-amine] | < 1

Row | SMILES | IC50 [µM]
20 | CC1(CN)CCN(c2cnc3c(Nc4ccnc(Cl)c4Cl)n[nH]c3n2)CC1 [Compound 500, 6-(4-(Aminomethyl)-4-methylpiperidin-1-yl)-N-(2,3-dichloropyridin-4-yl)-1H-pyrazolo[3,4-b]pyrazin-3-amine hydrochloride] | < 1
21 | Cn1nc(Oc2ccnc(Cl)c2Cl)c2ncc(N3CCC(C)(CN)CC3)nc21 [Compound 501, (1-(3-((2,3-dichloropyridin-4-yl)oxy)-1-methyl-1H-pyrazolo[3,4-b]pyrazin-6-yl)-4-methylpiperidin-4-yl)methanamine] | ≥ 10
22 | CC1(N)CCN(c2cnc3c(Oc4ncccc4Cl)n[nH]c3n2)CC1 [Compound 502, 1-(3-((3-chloropyridin-2-yl)oxy)-1H-pyrazolo[3,4-b]pyrazin-6-yl)-4-methylpiperidin-4-amine dihydrochloride] | < 1
23 | Cc1nccc(Oc2n[nH]c3nc(N4CCC(C)(CN)CC4)cnc23)c1Cl [Compound 504, (1-(3-((3-chloro-2-methylpyridin-4-yl)oxy)-1H-pyrazolo[3,4-b]pyrazin-6-yl)-4-methylpiperidin-4-yl)methanamine] | < 1
24 | CC1(CN)CCN(c2cnc3c(Oc4ccc5[nH]ccc5c4)n[nH]c3n2)CC1 [Compound 505, (1-(3-((1H-indol-5-yl)oxy)-1H-pyrazolo[3,4-b]pyrazin-6-yl)-4-methylpiperidin-4-yl)methanamine] | 1 to 10
25 | Cn1cc(-c2nccc(Oc3n[nH]c4nc(N5CCC(C)(CN)CC5)cnc34)c2Cl)cn1 [Compound 506, (1-(3-((3-chloro-2-(1-methyl-1H-pyrazol-4-yl)pyridin-4-yl)oxy)-1H-pyrazolo[3,4-b]pyrazin-6-yl)-4-methylpiperidin-4-yl)methanamine] | < 1
26 | CC1(N)CCN(c2cnc3c(Oc4cnccc4N)n[nH]c3n2)CC1 [Compound 507, 3-((6-(4-Amino-4-methylpiperidin-1-yl)-1H-pyrazolo[3,4-b]pyrazin-3-yl)oxy)pyridin-4-amine hydrochloride] | ≥ 10
27 | CC1(N)CCN(c2cnc3c(Oc4cccnc4N)n[nH]c3n2)CC1 [Compound 508, 3-((6-(4-Amino-4-methylpiperidin-1-yl)-1H-pyrazolo[3,4-b]pyrazin-3-yl)oxy)pyridin-2-amine hydrochloride] | 1 to 10
28 | CC1(N)CCN(c2cnc3c(Oc4cnccc4Cl)n[nH]c3n2)CC1 [Compound 509, 1-(3-((4-Chloropyridin-3-yl)oxy)-1H-pyrazolo[3,4-b]pyrazin-6-yl)-4-methylpiperidin-4-amine hydrochloride] | 1 to 10
29 | CC1(N)CCN(c2cnc3c(Oc4cccnc4Cl)n[nH]c3n2)CC1 [Compound 510, 1-(3-((2-chloropyridin-3-yl)oxy)-1H-pyrazolo[3,4-b]pyrazin-6-yl)-4-methylpiperidin-4-amine] | < 1
30 | Cn1ccc(Sc2n[nH]c3nc(N4CCC(C)(CN)CC4)cnc23)cc1=O [Compound 511, 4-((6-(4-(aminomethyl)-4-methylpiperidin-1-yl)-1H-pyrazolo[3,4-b]pyrazin-3-yl)thio)-1-methylpyridin-2(1H)-one] | < 1
31 | C[C@@H]1OCC2(CCN(c3cnc4c(Oc5ccnc(Cl)c5Cl)n[nH]c4n3)CC2)[C@@H]1N [Compound 512, (3S,4S)-8-(3-((2,3-dichloropyridin-4-yl)oxy)-1H-pyrazolo[3,4-b]pyrazin-6-yl)-3-methyl-2-oxa-8-azaspiro[4.5]decan-4-amine] | < 1
32 | CC1(CN)CCN(c2cnc3c(Sc4ccn5nccc5c4)n[nH]c3n2)CC1 [Compound 513, (4-methyl-1-(3-(pyrazolo[1,5-a]pyridin-5-ylthio)-1H-pyrazolo[3,4-b]pyrazin-6-yl)piperidin-4-yl)methanamine] | < 1
33 | CC1(CN)CCN(c2cnc3c(Sc4ccnc5[nH]ccc45)n[nH]c3n2)CC1 [Compound 515, (1-(3-((1H-pyrrolo[2,3-b]pyridin-4-yl)thio)-1H-pyrazolo[3,4-b]pyrazin-6-yl)-4-methylpiperidin-4-yl)methanamine] | < 1
34 | CC1(CN)CCN(c2cnc3c(Sc4ccc5cccnc5c4Cl)n[nH]c3n2)CC1 [Compound 516, (1-(3-((8-chloroquinolin-7-yl)thio)-1H-pyrazolo[3,4-b]pyrazin-6-yl)-4-methylpiperidin-4-yl)methanamine] | < 1
35 | Cc1nccc(Oc2n[nH]c3nc(N4CCC5(CC4)CO[C@@H](C)[C@H]5N)cnc23)c1Cl [Compound 517, (3S,4S)-8-(3-((3-chloro-2-methylpyridin-4-yl)oxy)-1H-pyrazolo[3,4-b]pyrazin-6-yl)-3-methyl-2-oxa-8-azaspiro[4.5]decan-4-amine] | < 1
36 | CC1(CN)CCN(c2cnc3c(Oc4cc(N)nc(Cl)c4Cl)n[nH]c3n2)CC1 [Compound 518, 4-((6-(4-(aminomethyl)-4-methylpiperidin-1-yl)-1H-pyrazolo[3,4-b]pyrazin-3-yl)oxy)-5,6-dichloropyridin-2-amine hydrochloride] | < 1
37 | C[C@@H]1OCC2(CCN(c3cnc4c(N5CCCc6c5ccc(C#N)c6[C@@H]5CC(=O)N(C)C5)n[nH]c4n3)CC2)[C@@H]1N [Compound 519] | < 1
38 | C[C@@H]1OCC2(CCN(c3cnc4c(N5CCCc6c([C@H]7CC(=O)N(C)C7)cccc65)n[nH]c4n3)CC2)[C@@H]1N [Compound 521] | < 1

From patent US11591336B2 (Relay Therapeutics, Inc., priority 2017, dated 2023)
